Values quoted from earlier work, collected in patent US20260020560A1, “AG[…] DIHYDROJASMONATE COMPOSITIONS” (priority 2022, published 2026).

O=S(=O)(O)CCN1CCN(CCO)CC1 [HEPES, 4-(2-hydroxyethyl)-1-piperazineethanesulfonic acid]
pKa at 25° C.: 7.48

O=S(=O)(O)CC(O)CNC(CO)(CO)CO (centres unmarked) [TAPSO, 3-[N-tris(hydroxymethyl)methyl-amino]-2-hydroxypropanesulfonic acid]
pKa at 25° C.: 7.635
